Measured values published in US6420373B1, “9-N-Bicyclic nuceoside agents useful as selective inhibitors of proinflammatory cytokines” (Merrell Pharmaceuticals Inc., priority 1993, dated 2002).
Structures can show the parent of a compound that is named as a salt.

What was measured:
TNF-α = assay: LPS-stimulated human monocyte-derived macrophage TNF-α inhibition assay; type: cell-based; settings: 18 hours of culture
Procedure: Monocyte-derived macrophages stimulated with bacterial lipopolysaccharide (LPS) produce high levels of TNF-α (25.8+4.2 ηg/mL) during 18 hours of culture.

[1] = test system: D-galactosamine animal model of septic shock; assay: D-galactosamine animal model of septic shock (protection against lethal effects of LPS); type: in vivo; settings: treated about 1 hour before i.p. challenge of D-galactosamine and LPS, by 18 hours after challenge, test compound 100 mg/kg i.p.

## Nc1ncnc2c1ncn2[C@H]1CC[C@H]2[C@@H]1CC[C@H]2O (racemic) [(±)-Exo-2-adenyl-endo-6-hydroxybicyclo[3,3,0]octane Dihydrochloride]
TNF-α; monocyte-derived macrophages from human peripheral blood, LPS-stimulated, dose response 100 μM-0.1 μM, read-out: IC50 for inhibiting TNF-α levels
  IC50: 143 nM
[1]; mice
  protection: 100%
[1]
  mice killed: 0 out of 8

## CC(=O)CCCCn1c(=O)c2c(ncn2C)n(C)c1=O [Pentoxifylline, reference compound]
TNF-α; Homo sapiens, at 50 μM, LPS-stimulated monocyte-derived macrophages, read-out: inhibition of TNF-α levels
  inhibition at 50 µM: 73.5%
